Test system: post-menopausal women
Experiment: Weekly frequency of moderate to severe VMS, dose-finding study
Type: in vivo
Conditions: for Difference with placebo, LS adjusted mean, absolute change in weekly frequency of moderate to severe VMS / Difference with placebo, LS adjusted mean, relative change in weekly frequency of moderate to severe VMS: 15 mg E4 vs placebo; for Differences with placebo (including ineffective doses 2.5 mg and 5 mg), relative change in weekly frequency of moderate to severe VMS, LS adjusted mean / Differences with placebo (including ineffective doses 2.5 mg and 5 mg), relative change in weekly frequency of moderate to severe VMS, p_value: 15.0 mg vs 0 mg; for Relative change in weekly frequency of moderate to severe VMS, LS adjusted mean: analysis with placebo grouped with 2.5 and 5 mg; for Covariate significance, covariate trt1, p_value, relative change in weekly frequency of moderate to severe VMS: 10 mg, 15 mg vs placebo grouped with 2.5 and 5 mg
From the text: To determine the Minimum Effective Dose (MED), firstly the selection criteria required that patients presented at least 7 moderate to severe VMS/day or at least 50 moderate to severe VMS/week in the week preceding randomization. Secondly, a placebo group was included in a double-blind fashion. Thirdly, the total patient number was such that statistical significance could be obtained between separate arms of the study. Fourthly, the absolute change from baseline in weekly frequency of moderate to severe VMS was taken into account. An analysis of covariance (ANCOVA) was performed based on the untransformed change in weekly frequency of moderate to severe VMS from baseline. Finally, the change in severity from baseline was evaluated. For this, the Severity Scoring System of VMS was documented by the subjects as follows: • a score of Mild (1) for a sensation of heat without sweating; • a score of Moderate (2) for a sensation of heat with sweating/the subject is able to continue activity; and • a score of Severe (3) for a sensation of heat with sweating/which causes cessation of activity.
Enrolment was approximately 18 months. Individual subject participation was up to 27 weeks: up to 6 weeks pre-screening and washout, up to 4 weeks screening and run-in period, up to 91 days (13 weeks) of E4/placebo treatment followed by 2 weeks (14 days) of progestin therapy and a Follow up visit 1 week after completion of progestin therapy in non-hysterectomised subjects only.
To define the minimum effective dose (MED) of the oral dose of E4 by evaluating changes in frequency and in severity of moderate to severe vasomotor symptoms (VMS).
This was a prospective, multicentre, randomised, placebo-controlled, double-blinded, dose-finding study.
Eligible subjects were hysterectomised and non-hysterectomised post-menopausal women aged 40 to 65 years, inclusive, presenting at least 7 moderate to severe hot flushes/day or at least 50 moderate to severe hot flushes/week.
The subjects have met all of the following inclusion criteria at the randomization visit. These criteria were assessed during the screening period: • 1. Women aged 40 to 65 years, inclusive, presenting at least 7 moderate to severe hot flushes/day or at least 50 moderate to severe hot flushes/week in the week preceding randomization. • 2. Body Mass Index (BMI) between 18.0 and 35.0 kg/m^2, inclusive. • 3. Post-menopausal status defined as levels of follicle stimulating hormone (FSH) >40 IU/L and: • amenorrhoea for at least 12 consecutive months or, • amenorrhoea for at least 6 months with estradiol (E2)<20 pg/mL or, • at least 6 weeks post-surgical bilateral oophorectomy with or without hysterectomy with a copy of the pathology report or a statement on letterhead from the subject's physician documenting both ovaries were removed is required. • 4. For non-hysterectomised women: intact uterus with bi-layer endometrial thickness […] on TVUS. • 5. Negative pregnancy test. • 6. Good physical and mental health, in the judgement of the Principal Investigator (PI), on the basis of medical, surgical and gynaecological history, physical examination, gynaecological examination, clinical laboratory, and vital signs. • 7. Subject has provided signed and dated written informed consent before admission to the study. • 8. Subject is able to understand and comply with the protocol requirements, instructions, and protocol-stated restrictions. Exclusion Criteria:
All treatments (Estetrol, hereinafter, E4, [2.5 mg, 5 mg, 10 mg, 15 mg] capsule) were administered once daily (QD) per os for at least 12 consecutive weeks until the last biological assessments (Day 91 maximum) had been performed.
In order to analyse the data recorded in this study, treatment groups have been compared using an ANCOVA (analysis of covariance) with respect to the change in weekly frequency of moderate to severe VMS from baseline to weeks 4 and 12. […]

[1] = week 4, ANCOVA with study centre
[2] = week 12, ANCOVA with study centre

C[C@]12CC[C@@H]3c4ccc(O)cc4CC[C@H]3[C@@H]1[C@@H](O)[C@@H](O)[C@@H]2O [E4, 1,3,5 (10)-estratrien-3,15alpha,16alpha,17beta-tetrol]
Mean change from baseline in weekly frequency of moderate to severe VMS (15 mg E4 QD per os, week 4): −41.43 | Relative change (% from baseline) in weekly frequency of moderate to severe VMS, mean (15 mg E4 QD per os, week 4): −67% | Mean change from baseline in weekly frequency of moderate to severe VMS (15 mg E4 QD per os, week 5): −44.34 | Relative change (% from baseline) in weekly frequency of moderate to severe VMS, mean (15 mg E4 QD per os, week 5): −72% | Mean change from baseline in weekly frequency of moderate to severe VMS (15 mg E4 QD per os, week 6): −46.58 | Relative change (% from baseline) in weekly frequency of moderate to severe VMS, mean (15 mg E4 QD per os, week 6): −76% | Mean change from baseline in weekly frequency of moderate to severe VMS (15 mg E4 QD per os, week 7): −48.51 | Relative change (% from baseline) in weekly frequency of moderate to severe VMS, mean (15 mg E4 QD per os, week 7): −79% | Mean change from baseline in weekly frequency of moderate to severe VMS (15 mg E4 QD per os, week 8): −48.35 | Relative change (% from baseline) in weekly frequency of moderate to severe VMS, mean (15 mg E4 QD per os, week 8): −79% | Mean change from baseline in weekly frequency of moderate to severe VMS (15 mg E4 QD per os, week 9): −49.62 | Relative change (% from baseline) in weekly frequency of moderate to severe VMS, mean (15 mg E4 QD per os, week 9): −81% | Mean change from baseline in weekly frequency of moderate to severe VMS (15 mg E4 QD per os, week 10): −48.88 | Relative change (% from baseline) in weekly frequency of moderate to severe VMS, mean (15 mg E4 QD per os, week 10): −80% | Mean change from baseline in weekly frequency of moderate to severe VMS (15 mg E4 QD per os, week 11): −49.92 | Relative change (% from baseline) in weekly frequency of moderate to severe VMS, mean (15 mg E4 QD per os, week 11): −82% | Mean change from baseline in weekly frequency of moderate to severe VMS (15 mg E4 QD per os, week 12): −50.94 | Relative change (% from baseline) in weekly frequency of moderate to severe VMS, mean (15 mg E4 QD per os, week 12): −84% | Difference with placebo, LS adjusted mean, absolute change in weekly frequency of moderate to severe VMS [1]: −9.804 | Difference with placebo, LS adjusted mean, relative change in weekly frequency of moderate to severe VMS [1]: −0.1564 | Difference with placebo, LS adjusted mean, absolute change in weekly frequency of moderate to severe VMS (week 4, without site effect): −10.71 | Difference with placebo, LS adjusted mean, relative change in weekly frequency of moderate to severe VMS (week 4, without site effect): −0.1703 | Difference with placebo, LS adjusted mean, absolute change in weekly frequency of moderate to severe VMS [2]: −10.09 | Difference with placebo, LS adjusted mean, relative change in weekly frequency of moderate to severe VMS [2]: −0.1585 | Difference with placebo, LS adjusted mean, absolute change in weekly frequency of moderate to severe VMS (week 12, without site effect): −10.98 | Difference with placebo, LS adjusted mean, relative change in weekly frequency of moderate to severe VMS (week 12, without site effect): −0.1723 | Reduction in the frequency of moderate to severe VMS when compared to baseline (15 mg daily dose): over 80% | Responders: patients showing a response of 50% or more (relative change from baseline in weekly frequency of moderate to severe VMS) (15 mg daily dose, week 12): 91.8% | Responders: patients showing a response of 75% or more (weekly frequency of moderate to severe VMS) (15 mg daily dose, week 12): 77.6% | Differences with placebo (including ineffective doses 2.5 mg and 5 mg), relative change in weekly frequency of moderate to severe VMS, LS adjusted mean (week 4): −0.1797 | Differences with placebo (including ineffective doses 2.5 mg and 5 mg), relative change in weekly frequency of moderate to severe VMS, p_value (week 4): 0.00218 | Differences with placebo (including ineffective doses 2.5 mg and 5 mg), relative change in weekly frequency of moderate to severe VMS, LS adjusted mean (week 12): −0.1826 | Differences with placebo (including ineffective doses 2.5 mg and 5 mg), relative change in weekly frequency of moderate to severe VMS, p_value (week 12): 0.00099 | Relative change (% from baseline) in weekly frequency of moderate to severe VMS, mean (15 mg, Week 12): −84% | Relative change (% from baseline) in weekly frequency of moderate to severe VMS, mean (15 mg, week 0): 0% | Relative change (% from baseline) in weekly frequency of moderate to severe VMS, mean (15 mg, week 1): −22% | Relative change (% from baseline) in weekly frequency of moderate to severe VMS, mean (15 mg, week 2): −46% | Relative change (% from baseline) in weekly frequency of moderate to severe VMS, mean (15 mg, week 3): −57% | Relative change (% from baseline) in weekly frequency of moderate to severe VMS, mean (15 mg, week 4): −67% | Relative change in weekly frequency of moderate to severe VMS, LS adjusted mean (15 mg, week 4): −0.6475 | Relative change (% from baseline) in weekly frequency of moderate to severe VMS, mean (15 mg, week 5): −72% | Relative change (% from baseline) in weekly frequency of moderate to severe VMS, mean (15 mg, week 6): −76% | Relative change (% from baseline) in weekly frequency of moderate to severe VMS, mean (15 mg, week 7): −79% | Relative change (% from baseline) in weekly frequency of moderate to severe VMS, mean (15 mg, week 8): −79% | Relative change (% from baseline) in weekly frequency of moderate to severe VMS, mean (15 mg, week 9): −81% | Relative change (% from baseline) in weekly frequency of moderate to severe VMS, mean (15 mg, week 10): −80% | Relative change (% from baseline) in weekly frequency of moderate to severe VMS, mean (15 mg, week 11): −82% | Relative change in weekly frequency of moderate to severe VMS, LS adjusted mean (15 mg, week 12): −0.8006 | Minimal Effective Dose for the alleviation of VMS (perimenopausal and postmenopausal women): about 15 mg daily | Efficacy on vasomotor parameters (two lowest doses tested (2.5 mg per day and 5 mg per day)): did not show efficacy | Covariate significance, covariate trt1, p_value, relative change in weekly frequency of moderate to severe VMS (week 4): 0.0039 | Covariate significance, covariate trt1, p_value, relative change in weekly frequency of moderate to severe VMS (week 12): 0.0017

Reference: patent US11484539B2, “Compounds and their uses for alleviating menopause-associated symptoms” (Estetra SPRL, priority 2018, dated 2022)
